Columns and labels:
CDK2 (human) [1] = biological target: CDK2 (human) (UniProt P24941); assay: Enzyme Assay
CDK2 (human) [2] = biological target: CDK2 (human) (UniProt P24941); assay: Cell-Based Assay

**Q.** How did the IC50 (CDK2 (human) [1]) turn out when `O=C1Nc2ccc(F)c3c(S(=O)(=O)CCO)cc(-c4ccc[nH]4)c1c23` was run?
**A.** Its IC50 is ≤ 10 µM.

**Q.** For `O=C1Nc2ccc(F)c3c(N4CCNC4=O)cc(-c4ccc[nH]4)c1c23`, which IC50 (CDK2 (human) [1]) is on record?
**A.** Its IC50 is ≤ 10 µM.

**Q.** Which IC50 (CDK2 (human) [1]) does the source give for `O=C1Nc2ccc(F)c3c(N4CC[C@@H](O)C4)cc(-c4ccc[nH]4)c1c23` here?
**A.** Its IC50 is ≤ 10 µM.

**Q.** `Cc1c[nH]c(-c2cc(SCCN)c3c(F)ccc4c3c2C(=O)N4)c1C` was tested. Which IC50 (CDK2 (human) [1]) did it give?
**A.** Its IC50 is ≤ 10 µM.

**Q.** Which IC50 (CDK2 (human) [1]) does the source give for `O=C1Nc2ccc(F)c3c2C1=C(c1ccc[nH]1)CC3` here?
**A.** The IC50 was ≤ 10 µM.

**Q.** How did the IC50 (CDK2 (human) [1]) turn out when `CCc1cc(-c2ccc[nH]2)c2c3c(ccc(F)c13)NC2=O` was run?
**A.** Its IC50 is ≤ 10 µM.

**Q.** How did the IC50 (CDK2 (human) [1]) turn out when `Cc1cc(-c2ccc[nH]2)c2c3c(ccc(F)c13)NC2=O` was run?
**A.** The IC50 was ≤ 10 µM.

**Q.** Which IC50 (CDK2 (human) [1]) does the source give for `COc1cc(-c2ccc[nH]2)c2c3c(ccc(F)c13)NC2=O` here?
**A.** The IC50 was ≤ 10 µM.

**Q.** For `O=C1Nc2ccc(F)c3c([S+]([O-])CCO)cc(-c4ccc[nH]4)c1c23` (stereo not given), which IC50 (CDK2 (human) [2]; rko) is on record?
**A.** The IC50 was ≤ 10 µM.

**Q.** How did the IC50 (CDK2 (human) [1]) turn out when `NCCSc1cc(-c2ccc[nH]2)c2c3c(ccc(F)c13)NC2=O` was run?
**A.** The IC50 was ≤ 10 µM.

**Q.** For `O=C1Nc2ccc(F)c3c(N4CCCC(O)C4)cc(-c4ccc[nH]4)c1c23` (stereo not given), which IC50 (CDK2 (human) [1]) is on record?
**A.** Its IC50 is ≤ 10 µM.

**Q.** And the IC50 (CDK2 (human) [2]; mda-mb-435)?
**A.** Its IC50 is ≤ 10 µM.

**Q.** And the IC50 (CDK2 (human) [2]; rko)?
**A.** The IC50 was ≤ 10 µM.

**Q.** `NCCOc1cc(-c2ccc[nH]2)c2c3c(ccc(F)c13)NC2=O` was tested. Which IC50 (CDK2 (human) [1]) did it give?
**A.** The IC50 was ≤ 10 µM.

**Q.** How did the IC50 (CDK2 (human) [1]) turn out when `O=C1Nc2ccc(F)c3ccc(-c4ccc[nH]4)c1c23` was run?
**A.** Its IC50 is ≤ 10 µM.

**Q.** `CCN(CC)CCNc1cc(-c2ccc[nH]2)c2c3c(ccc(F)c13)NC2=O` was tested. Which IC50 (CDK2 (human) [1]) did it give?
**A.** Its IC50 is ≤ 10 µM.

**Q.** How did the IC50 (CDK2 (human) [1]) turn out when `O=C1Nc2ccc(F)c3c(N4CCNCC4)cc(-c4ccc[nH]4)c1c23` was run?
**A.** The IC50 was ≤ 10 µM.

**Q.** How did the IC50 (CDK2 (human) [1]) turn out when `CCC(C)c1cc(-c2ccc[nH]2)c2c3c(ccc(F)c13)NC2=O` (stereo not given) was run?
**A.** Its IC50 is ≤ 10 µM.

**Q.** For `NCCS(=O)(=O)c1cc(-c2ccc[nH]2)c2c3c(ccc(F)c13)NC2=O`, which IC50 (CDK2 (human) [1]) is on record?
**A.** The IC50 was ≤ 10 µM.

**Q.** How did the IC50 (CDK2 (human) [1]) turn out when `O=C1Nc2ccc(F)c3c(N4CCOCC4)cc(-c4ccc[nH]4)c1c23` was run?
**A.** The IC50 was ≤ 10 µM.

**Q.** For `O=C1Nc2ccc(F)c3c(SCCO)cc(-c4ccc[nH]4)c1c23`, which IC50 (CDK2 (human) [1]) is on record?
**A.** The IC50 was ≤ 10 µM.

**Q.** For `O=C1Nc2ccc(F)c3c(NCCO)cc(-c4ccc[nH]4)c1c23`, which IC50 (CDK2 (human) [1]) is on record?
**A.** The IC50 was ≤ 10 µM.

**Q.** Which IC50 (CDK2 (human) [1]) does the source give for `NCCCNc1cc(-c2ccc[nH]2)c2c3c(ccc(F)c13)NC2=O` here?
**A.** The IC50 was ≤ 10 µM.

**Q.** How did the IC50 (CDK2 (human) [1]) turn out when `CC(=O)NCCNc1cc(-c2ccc[nH]2)c2c3c(ccc(F)c13)NC2=O` was run?
**A.** The IC50 was ≤ 10 µM.

**Q.** How did the IC50 (CDK2 (human) [1]) turn out when `NCC[S+]([O-])c1cc(-c2ccc[nH]2)c2c3c(ccc(F)c13)NC2=O` (stereo not given) was run?
**A.** Its IC50 is ≤ 10 µM.

**Q.** What about the IC50 (CDK2 (human) [2]; mda-mb-435) of the same compound?
**A.** The IC50 was ≤ 10 µM.

**Q.** What about the IC50 (CDK2 (human) [2]; rko) of the same compound?
**A.** The IC50 was ≤ 10 µM.

**Q.** For `CCOc1cc(-c2ccc[nH]2)c2c3c(ccc(F)c13)NC2=O`, which IC50 (CDK2 (human) [1]) is on record?
**A.** The IC50 was ≤ 10 µM.

**Q.** What does the source list for `O=C1Nc2ccc(F)c3c(N4CCCC(CO)C4)cc(-c4ccc[nH]4)c1c23` (stereo not given)?
**A.** IC50 (CDK2 (human) [1]): ≤ 10 µM; IC50 (CDK2 (human) [2]; mda-mb-435): ≤ 10 µM; IC50 (CDK2 (human) [2]; rko): ≤ 10 µM

**Q.** With `O=C1Nc2ccc(F)c3c(OCCCO)cc(-c4ccc[nH]4)c1c23` as the compound, how does the IC50 (CDK2 (human) [1]) read?
**A.** Its IC50 is ≤ 10 µM.

**Q.** Which IC50 (CDK2 (human) [1]) does the source give for `O=C1Nc2ccc(F)c3c(OCCO)cc(-c4ccc[nH]4)c1c23` here?
**A.** Its IC50 is ≤ 10 µM.

**Q.** How did the IC50 (CDK2 (human) [1]) turn out when `O=C1Nc2ccc(F)c3c(N4CCC(O)CC4)cc(-c4ccc[nH]4)c1c23` was run?
**A.** Its IC50 is ≤ 10 µM.

**Q.** `CC(C)(N)CNc1cc(-c2ccc[nH]2)c2c3c(ccc(F)c13)NC2=O` was tested. Which IC50 (CDK2 (human) [1]) did it give?
**A.** Its IC50 is ≤ 10 µM.

Reference: the Kinase Knowledgebase extract (Sharma et al. 2016)
